Experimental data from patent US4275065A, “Modulating the immune response with 2-substituted-3-hydroxythiazolo[2,3-b]b e” (American Home Products Corporation, priority 1980, dated 1981).

What was measured:
[1] = tested on: murine Lewis lung carcinoma; assay: metastatic spread of murine Lewis lung carcinoma implanted subcutaneously; assay type: in vivo
Method: The ability of the compounds of the invention to influence the growth and metastatic spread of murine Lewis lung carcinoma implanted subcutaneously,is evaluated.
The procedures employed for stock tumor maintenance and transfer, as well as for drug evaluation on the primary tumor, are those found in Cancer Chemotherapy Reports, Vol. 3, No. 2, September 1972, Protocol 1.400. The measurements of metastic spread are made by counting tumor foci on the excised lung under an illuminated magnifying lens or a dissecting microscope, after employment of the Wexler india ink technique (Hilda Wexler, "Accurate Identification of Experimental Pulmonary Metastases", J. Nat. Can. Inst., Volume 36, No. 4, April 1966, pp. 641-643) to accurately identify and count lung metasteses.

[2] = tested on: adjuvant arthritis (left paw edema); assay: adjuvant arthritis test, prophylactic peroral administration; assay type: in vivo, male Lewis strain rats; conditions: prophylactic p.o.
[3] = tested on: antibody-secreting plaque-forming splenocytes (IgG and IgM); assay: Cunningham modification of the Jerne assay (hemolytic plaque technique), IgM and IgG plaques per spleen; assay type: in vivo, CDF1 (Balb/c × DBA/2) mice; conditions: 100 mg/kg
Method: In this example, the compounds of the invention are tested for their effect on antibody-secreting plaque-forming splenocytes (IgG and IgM) in the Cunningham modification of the Jerne assay. This technique is able to detect, in a quantitative manner, antibody producing cells in response to antigen stimulus in the host mouse. For study of […] immune response, sheep erythrocytes (SRBC) are used (as in the present Example), while for humoral immune response, SRBC coupled with pneumococcal polysaccharide is used.
CDF1 (Balb/c × DBA/2) mice are immunized with 0.1 ml. of 10^8 sheep erythrocytes (SRBC) intraperitonially 4-5 days before the assay. The mice are separated into groups, with one group serving as a control and all other groups receiving compounds of the invention. The treated mice are dosed with drug on day one. […] The spleens of the sacrificed mice are excised and washed several times in RPMI 1640 with 10% fetal bovine serum. 100 λ of spleen cells are mixed with a drop of guinea pig complement, four drops of RPMI 1640 and a drop of 25% SRBC in a microtiter plate well and then pipetted into a Cunningham chamber. On day four, for IgM determinations, the chambers are incubated for 30 minutes at 37° C. Antibody, released by the small proportion of active cells, attaches to the surrounding erythrocytes which are lysed by complement leaving a small plaque up to 0.5 mm. in diameter. Since only cells releasing IgM antibody form plaques directly, a "developing" serum must be added to be able to form and view IgG plaques. Thus fifth or sixth day cultured spleen cells are further treated with rabbit antimouse IgG and then incubated for 45 minutes. Both IgM and IgG plaques are counted under a stereomicroscope.
In Table 1 are given the IgM and IgG plaque counts per spleen for mice treated with 6-chloro-2-phenylthiazolo[2,3-b]benzothiazol-3(2H)-one mesoionic didehydro derivative and for the controls:
The assay is repeated using the following compounds of the invention: 2-phenylthiazolo[2,3-b]benzothiazol-3(2H)-one mesoionic didehydro derivative (A), 6-chloro-2-(p-chlorophenyl)-thiazolo[2,3-b]benzothiazol-3(2H)-one mesoionic didehydro derivative (B) and 6-chloro-2-phenylthiazolo[2,3-b]benzothiazol-3(2H)-one mesoionic didehydro derivative (C).

[4] = tested on: autoimmune disease (systemic lupus erythematosus); assay: autoimmune disease (systemic lupus erythematosus), immunoglobulin determinations, male NZB/W mice; assay type: in vivo, male NZB/W F1 mice; conditions: A 100 mg/kg, levamisole 25 mg/kg, i.p. twice weekly
Method: (§1) The effect of the compounds of the invention on the development and progress of autoimmune disease (systemic lupus erythematosus) in the New Zealand F1 hydrid mouse (NZB×NZW) is evaluated. NZB/W F1 mice are divided into two groups according to sex. […] IgG, IgM and antinuclear antibody determinations are made on pooled samples of serum obtained by capillary bleedings of the suborbital sinus at approximately monthly intervals. The compounds of the invention are suspended in a solution of physiological saline with 0.16% CMC. All dosing is twice weekly intraperitonially. […] Immunoglobulin values from serum samples are compared with the baseline (pretreatment) for each group.

[5] = tested on: delayed hypersensitivity reaction; assay: guinea pig delayed hypersensitivity assay (PPD); assay type: in vivo, Male Hartley strain guinea pigs; conditions: 50 mg/kg orally, read 24 hours after challenge, * = p < 0.05
[6] = tested on: autoimmune disease (systemic lupus erythematosus); assay: autoimmune disease (systemic lupus erythematosus), immunoglobulin determinations, female NZB/W mice; assay type: in vivo, female NZB/W F1 mice; conditions: A 100 mg/kg, levamisole 25 mg/kg, i.p. twice weekly
Method: as §1

[7] = tested on: established adjuvant arthritis (left paw edema); assay: established adjuvant arthritis, therapeutic peroral administration; assay type: in vivo, male Lewis strain rats; conditions: therapeutic p.o., * = p < 0.05
[8] = tested on: thymus gland; assay: effect on the thymus gland (thymus weight); assay type: in vivo, BDF1 mice
Method: The effect of the compounds of the invention on the thymus gland is measured. BDF1 mice of 18-20 gms. weight are dosed at 150 mg/kg. with 6-chloro-2-phenylthiazolo[2,3-b]benzothiazolo-3(2H)-one mesoionic didehydro derivative for eight consecutive days. The mice are sacrificed on the ninth day, the thymus glands excised and weighed. The excised thymus glands averaged […]. as compared to […]. for the control group. […] The weight loss is also correlated to dose, and the results are as follows:
Using the same technique, the following compounds of the invention were tested: 6-chloro-2-(p-chlorophenyl)thiazolo[2,3-b]benzothiazol-3(2H)-one mesoionic didehydro derivative (A), 2-phenyl-5,6,7,8-tetrahydrothiazolo[2,3-b]benzothiazol-3(2H)-one mesoionic didehydro derivative (B), 2-phenylthiazolo[2,3-b]-benzothiazol-3(2H)-one mesoionic didehydro derivative (C),6-chloro-2-trifluoroacetylthiazolo[2,3-b]benzothiazol-3(2H)-one mesoionic didehydro derivative (D), 6-chloro-3-hydroxy-2-phenylthiazolo[2,3-b]benzothiazolium bromide (E), 7-ethoxy-3-hydroxy-2-phenylthiazolo[2,3-b]benzothiazolium bromide (F), 3-hydroxy-2-phenylthiazolo[2,3-b]benzothiazolium bromide (G), and 3-hydroxy-2-phenyl-5,6,7,8-tetrahydrothiazolo[2,3-b]benzothiazolium bromide (H).

[9] = 150 mg/kg, eight days, in words

[O-]c1c(-c2ccccc2)sc2sc3ccc(Cl)cc3[n+]12 [Example 3, 6-Chloro-2-phenylthiazolo[2,3-b]benzothiazol-3(2H)-one mesoionic didehydro derivative]
Average Number of Metastases ([1]; 25 mg/kg): 10.8
Average Number of Metastases ([1]; 50 mg/kg): 15.3
Average Number of Metastases ([1]; 100 mg/kg): 38.4
Average Number of Metastases ([1]; 150 mg/kg): 81.3
Average Number of Metastases ([1]; 300 mg/kg): 99.1
Mean % Inhibition of Left Paw Edema ([2]; 10 mg/kg): 32%
Mean % Inhibition of Left Paw Edema ([2]; 25 mg/kg, * = p < 0.05?): 41%
Mean % Inhibition of Left Paw Edema ([2]; 50 mg/kg, * = p < 0.05?): 63%
IgG plaques, mean (total number of plaques per spleen) ([3]; Day 4): 37,087 plaques per spleen
IgM plaques, mean (total number of plaques per spleen) ([3]; Day 4): 63,993 plaques per spleen
IgG plaques, mean (total number of plaques per spleen) ([3]; Day 6): 152,745 plaques per spleen
IgM plaques, mean (total number of plaques per spleen) ([3]; Day 6): 39,679 plaques per spleen
ANA (antinuclear antibody), Highest Dilution Positive ([4]; 47 Days): neg.
IgG level ([4]; 47 Days): 234 mg./100 ml.
IgM level ([4]; 47 Days): 48 mg./100 ml.
ANA (antinuclear antibody), Highest Dilution Positive ([4]; 76 Days): neg.
IgG level ([4]; 76 Days): 240 mg./100 ml.
IgM level ([4]; 76 Days): 49 mg./100 ml.
ANA (antinuclear antibody), Highest Dilution Positive ([4]; 111 Days): neg.
IgG level ([4]; 111 Days): 240 mg./100 ml.
IgM level ([4]; 111 Days): 80 mg./100 ml.
ANA (antinuclear antibody), Highest Dilution Positive ([4]; 154 Days): neg.
IgG level ([4]; 154 Days): 324 mg./100 ml.
IgM level ([4]; 154 Days): 96 mg./100 ml.
IgG Total Change From Baseline [4]: -126 mg./100 ml.
IgM Total Change From Baseline [4]: +52.5 mg./100 ml.
IgG level ([4]; Pretreatment): 450 mg./100 ml.
IgM level ([4]; Pretreatment): 43.5 mg./100 ml.
Mean % Inhibition of Paw Edema ([5]; 6 hours after challenge): 41%
Mean % Inhibition of Paw Edema ([5]; 24 hours before challenge): 43%
ANA (antinuclear antibody), Highest Dilution Positive ([6]; 47 Days): neg.
IgG level ([6]; 47 Days): 234 mg./100 ml.
IgM level ([6]; 47 Days): 49 mg./100 ml.
ANA (antinuclear antibody), Highest Dilution Positive ([6]; 76 Days): neg.
IgG level ([6]; 76 Days): 220 mg./100 ml.
IgM level ([6]; 76 Days): 54 mg./100 ml.
ANA (antinuclear antibody), Highest Dilution Positive ([6]; 111 Days): neg.
IgG level ([6]; 111 Days): 496 mg./100 ml.
IgM level ([6]; 111 Days): 148 mg./100 ml.
ANA (antinuclear antibody), Highest Dilution Positive ([6]; 154 Days): neg.
IgG level ([6]; 154 Days): 420 mg./100 ml.
IgM level ([6]; 154 Days): 108 mg./100 ml.
IgG Total Change From Baseline [6]: -40 mg./100 ml.
IgM Total Change From Baseline [6]: +44 mg./100 ml.
IgG level ([6]; Pretreatment): 460 mg./100 ml.
IgM level ([6]; Pretreatment): 64 mg./100 ml.
Mean % Inhibition of Left Paw Edema ([7]; 4th day of dosing, 12.5 mg/kg): 94%
Mean % Inhibition of Left Paw Edema ([7]; 4th day of dosing, 50 mg/kg): 67%
Mean % Inhibition of Left Paw Edema ([7]; 7th day of dosing, 12.5 mg/kg): 66%
Mean % Inhibition of Left Paw Edema ([7]; 7th day of dosing, 50 mg/kg): 58%
Thymus weight ([8]; 12.5 mg/kg): 55.3 mg
Thymus weight ([8]; 50 mg/kg): 46 mg
Thymus weight ([8]; 100 mg/kg): 11.8 mg
Thymus weight ([8]; 150 mg/kg, eight consecutive days, ninth day): 21.8 mg
Histopathological examination of the treated thymus glands [8, 9]: weight loss to be due solely to the depletion of lymphocytes
size of the cervical, axillary, trachial and inguinal lymph nodes [8, 9]: some reduction in the size
Thymus weight ([8]; 200 mg/kg): 20.5 mg
recovery of thymus weight and histopathological status ([8]; after resting for three weeks, in words): return to normal weight and histopathological status
